From patent US12109294B2, “Oily moisturizer and topical skin composition containing same” (The Nisshin OilliO Group, Ltd., priority 2018, dated 2024) come the findings set out here.

The assay deals with skin stratum corneum (forearm). Kind of assay: Evaluation test of moisture retention effect upon single application of esterified product (stratum corneum moisture content, SKICON-200). The format is in vivo, human.

Excerpt: The moisture content of the stratum corneum can be investigated using the electrical conductivity (μS) of the stratum corneum. The electrical conductivity (μS) of the stratum corneum is dependent on the water content of the stratum corneum, and the greater the moisture content of the stratum corneum, the larger the electrical conductivity (μS) of the stratum corneum becomes. The electrical conductivity (μS) of the stratum corneum can be measured by a constant-pressure sensor probe contact high-frequency conductance exchange method. Specifically, the electrical conductivity (μS) of the stratum corneum can be measured by using a stratum corneum moisture content measuring device based on the above measurement method, such as a stratum comeum moisture content measuring device “SKICON-200” manufactured by IBS Co., Ltd.
After maintaining the state with the oily moisturizer applied to the skin for a certain period, for example 30 to 90 minutes, the oily moisturizer is removed from the skin surface. […] Using the obtained values for the electrical conductivity (uS) of the stratum corneum before and after application of the oily moisturizer, the moisture retention effect value is calculated and the moisture retention effect is evaluated. […]
Subsequently, 40 μL of the test sample being evaluated was applied uniformly to the square measurement region of the forearm. […]

As for `OCC(O)CO` [glycerol], the “Increase in the electrical conductivity that corresponds with the moisture retention effect value” (60 minutes after application, still applied to the skin surface, prior to removal using water) was 477 μS. Besides, where the note is “single application, removal with cotton swab immersed in water rather than hexane”, the “Moisture retention effect value” is 8 μS.
